The results in this text go back to patent US8580918B2, “Peptidic GLP-2 agonists” (Ferring B.V., priority 2009, dated 2013).

Where a SMILES comes first, the peptide text is derived from it. [ ]: non-standard residue; d: D form. The star is where a group is joined. 1Nal = N[C@@H](Cc1cccc2ccccc12)C(=O)O; Nle = CCCC[C@H](N)C(=O)O; NHIsopentyl = CC(C)CCN*

The first series in a line: Pharmacokinetics in rats after intravenous bolus injection (systemic clearance). The class given is in vivo. Conditions: rat, plasma, 0.2 mg FB/kg, adult male Sprague-Dawley rats, i.v. bolus, dose 0.20 mg FB/kg, read-out: CL (ml/kg/min) Average. The method, then:
Pharmacokinetic (PK) parameters of illustrative agonists of the GLP-2 receptor were determined in adult male Sprague-Dawley rats post intravenous bolus injection of compounds at doses of 0.1-1.0 mg/kg. Three or four doubly cannulated animals per compound were dosed via jugular vein, blood samples were collected at several intervals via carotid artery, and plasma samples were prepared from whole blood using K2EDTA as anticoagulant. Subsequent bioanalysis of samples included compound extraction and plasma concentration determination using standard LC/MS/MS methods. Analyte concentration was calculated from internal standard normalized peak area and calibration curves.
For calculation of PK parameters the compound concentration-time curves were analyzed with the noncompartmental data analysis software package PK Solutions 2.0™ (Summit Research Services, Montrose Colo.). The systemic clearance per kg body weight (CL) was calculated as the dose per kg body weight divided by the AUC extrapolated to infinity based on trapezoid calculation (AUC∞). Values reported are the arithmetic mean and standard deviation from the number of animals used for each compound as indicated on Table 3.
Consider `CCCC[C@H](NC(=O)[C@H](CCC(=O)O)NC(=O)[C@H](CC(=O)O)NC(=O)[C@H](CO)NC(=O)[C@H](Cc1ccccc1)NC(=O)[C@H](CO)NC(=O)[C@@H](C)NC(=O)[C@H](CC(=O)O)NC(=O)CNC(=O)[C@@H](N)Cc1cnc[nH]1)C(=O)N[C@@H](CC(N)=O)C(=O)N[C@H](C(=O)N[C@H](C(=O)N[C@@H](CC(C)C)C(=O)N[C@@H](CC(=O)O)C(=O)N[C@@H](CC(N)=O)C(=O)N[C@@H](CC(C)C)C(=O)N[C@@H](C)C(=O)N[C@@H](C)C(=O)N[C@@H](CCCNC(=N)N)C(=O)N[C@@H](CC(=O)O)C(=O)N[C@@H](Cc1ccccc1)C(=O)N[C@H](C(=O)N[C@@H](CC(N)=O)C(=O)N[C@@H](Cc1c[nH]c2ccccc12)C(=O)N[C@@H](CC(C)C)C(=O)N[C@H](C(=O)N[C@@H](CCC(N)=O)C(=O)N[C@H](C(=O)N[C@@H](CCCCN)C(N)=O)[C@@H](C)O)[C@@H](C)CC)[C@@H](C)CC)[C@@H](C)CC)[C@@H](C)O` [Compound 1, [Gly2,D-Ala4,Nle10] hGLP-2 (1-30)-NH2] (H-HGD[dA]SFSDE[Nle]NTILDNLAARDFINWLIQTK-NH2), for which the clearance was determined as 7.1 mL/kg/min.
As to `CCCC[C@H](NC(=O)[C@H](CCC(=O)O)NC(=O)[C@H](CC(=O)O)NC(=O)[C@H](CO)NC(=O)[C@H](Cc1ccccc1)NC(=O)[C@H](CO)NC(=O)CNC(=O)[C@H](CC(=O)O)NC(=O)CNC(=O)[C@@H](N)Cc1c[nH]cn1)C(=O)N[C@@H](CC(N)=O)C(=O)N[C@H](C(=O)N[C@H](C(=O)N[C@@H](CC(C)C)C(=O)N[C@@H](CC(=O)O)C(=O)N[C@@H](CC(N)=O)C(=O)N[C@@H](CC(C)C)C(=O)N[C@@H](C)C(=O)N[C@@H](C)C(=O)N[C@@H](CCCNC(=N)N)C(=O)N[C@@H](CC(=O)O)C(=O)N[C@@H](Cc1ccccc1)C(=O)N[C@H](C(=O)N[C@@H](CC(N)=O)C(=O)N[C@@H](Cc1c[nH]c2ccccc12)C(=O)N[C@@H](CC(C)C)C(=O)N[C@H](C(=O)N[C@@H](CCC(N)=O)C(=O)N[C@H](C(=O)N[C@@H](CCCCN)C(=O)NCCC(C)C)[C@@H](C)O)[C@@H](C)CC)[C@@H](C)CC)[C@@H](C)CC)[C@@H](C)O` [Compound 5, [Gly2,Nle10] hGLP-2 (1-30)-NH-i-Am] (H-HGDGSFSDE[Nle]NTILDNLAARDFINWLIQTK-NHIsopentyl), the clearance was 1.2 mL/kg/min.
Same read-out and setting: the figure for `CCCC[C@H](NC(=O)[C@H](CCC(=O)O)NC(=O)[C@H](CC(=O)O)NC(=O)[C@H](CO)NC(=O)[C@H](Cc1ccccc1)NC(=O)[C@H](CO)NC(=O)CNC(=O)[C@H](CC(=O)O)NC(=O)CNC(=O)[C@@H](N)Cc1c[nH]cn1)C(=O)N[C@@H](CC(N)=O)C(=O)N[C@H](C(=O)N[C@H](C(=O)N[C@@H](CC(C)C)C(=O)N[C@@H](CC(=O)O)C(=O)N[C@@H](CC(N)=O)C(=O)N[C@@H](CC(C)C)C(=O)N[C@@H](C)C(=O)N[C@@H](C)C(=O)N[C@@H](CCCNC(=N)N)C(=O)N[C@@H](CC(=O)O)C(=O)N[C@@H](Cc1ccccc1)C(=O)N[C@H](C(=O)N[C@@H](CC(N)=O)C(=O)N[C@@H](Cc1c[nH]c2ccccc12)C(=O)N[C@@H](CC(C)C)C(=O)N[C@H](C(=O)N[C@@H](CCC(N)=O)C(=O)N[C@H](C(=O)N[C@@H](CCCCN)C(=O)NCC)[C@@H](C)O)[C@@H](C)CC)[C@@H](C)CC)[C@@H](C)CC)[C@@H](C)O` [Compound 6, [Gly2,Nle10] hGLP-2 (1-30)-NH—Et] (H-HGDGSFSDE[Nle]NTILDNLAARDFINWLIQTK-NHEt) is 6.3 mL/kg/min; for `CCCC[C@H](NC(=O)[C@H](CCC(=O)O)NC(=O)[C@H](CC(=O)O)NC(=O)[C@H](CO)NC(=O)[C@H](Cc1ccccc1)NC(=O)[C@H](CO)NC(=O)CNC(=O)[C@H](CC(=O)O)NC(=O)CNC(=O)[C@@H](N)Cc1c[nH]cn1)C(=O)N[C@@H](CC(N)=O)C(=O)N[C@H](C(=O)N[C@H](C(=O)N[C@@H](CC(C)C)C(=O)N[C@@H](CC(=O)O)C(=O)N[C@@H](CC(C)C)C(=O)N[C@@H](CC(C)C)C(=O)N[C@@H](C)C(=O)N[C@@H](C)C(=O)N[C@@H](CCCNC(=N)N)C(=O)N[C@@H](CC(=O)O)C(=O)N[C@@H](Cc1ccccc1)C(=O)N[C@H](C(=O)N[C@@H](CC(N)=O)C(=O)N[C@@H](Cc1c[nH]c2ccccc12)C(=O)N[C@@H](CC(C)C)C(=O)N[C@H](C(=O)N[C@@H](CCC(N)=O)C(=O)N[C@H](C(=O)N[C@@H](CCCCN)C(N)=O)[C@@H](C)O)[C@@H](C)CC)[C@@H](C)CC)[C@@H](C)CC)[C@@H](C)O` [Compound 11, [Gly2,Nle10,Leu16] hGLP-2 (1-30)-NH2] (H-HGDGSFSDE[Nle]NTILDLLAARDFINWLIQTK-NH2) it is 0.84 mL/kg/min.
For the compound `CCCC[C@H](NC(=O)[C@H](CCC(=O)O)NC(=O)[C@H](CC(=O)O)NC(=O)[C@H](CO)NC(=O)[C@H](Cc1ccccc1)NC(=O)[C@H](CO)NC(=O)CNC(=O)[C@H](CC(=O)O)NC(=O)CNC(=O)[C@@H](N)Cc1cnc[nH]1)C(=O)N[C@H](Cc1ccccc1)C(=O)N[C@H](C(=O)N[C@H](C(=O)N[C@@H](CC(C)C)C(=O)N[C@@H](CC(=O)O)C(=O)N[C@@H](CC(N)=O)C(=O)N[C@@H](CC(C)C)C(=O)N[C@@H](C)C(=O)N[C@@H](C)C(=O)N[C@@H](CCCNC(=N)N)C(=O)N[C@@H](CC(=O)O)C(=O)N[C@@H](Cc1ccccc1)C(=O)N[C@H](C(=O)N[C@@H](CC(N)=O)C(=O)N[C@@H](Cc1c[nH]c2ccccc12)C(=O)N[C@@H](CC(C)C)C(=O)N[C@H](C(=O)N[C@@H](CCC(N)=O)C(=O)N[C@H](C(=O)N[C@@H](CCCCN)C(N)=O)[C@@H](C)O)[C@@H](C)CC)[C@@H](C)CC)[C@@H](C)CC)[C@@H](C)O` [Compound 13, [Gly2,Nle10,D-Phe11] hGLP-2 (1-30)-NH2] (H-HGDGSFSDE[Nle][dF]TILDNLAARDFINWLIQTK-NH2), the clearance worked out at 1.2 mL/kg/min.
The same measure, in the same setting: the figure for `CCCC[C@H](NC(=O)[C@H](CCC(=O)O)NC(=O)[C@H](CC(=O)O)NC(=O)[C@H](CO)NC(=O)[C@H](Cc1ccccc1)NC(=O)[C@H](CO)NC(=O)CNC(=O)[C@H](CC(=O)O)NC(=O)CNC(=O)[C@@H](N)Cc1cnc[nH]1)C(=O)N[C@@H](CC(N)=O)C(=O)N[C@H](C(=O)N[C@H](C(=O)N[C@@H](CC(C)C)C(=O)N[C@@H](CC(=O)O)C(=O)N[C@@H](Cc1cccc2ccccc12)C(=O)N[C@@H](CC(C)C)C(=O)N[C@@H](C)C(=O)N[C@@H](C)C(=O)N[C@@H](CCCNC(=N)N)C(=O)N[C@@H](CC(=O)O)C(=O)N[C@@H](Cc1ccccc1)C(=O)N[C@H](C(=O)N[C@@H](CC(N)=O)C(=O)N[C@@H](Cc1c[nH]c2ccccc12)C(=O)N[C@@H](CC(C)C)C(=O)N[C@H](C(=O)N[C@@H](CCC(N)=O)C(=O)N[C@H](C(=O)N[C@@H](CCCCN)C(N)=O)[C@@H](C)O)[C@@H](C)CC)[C@@H](C)CC)[C@@H](C)CC)[C@@H](C)O` [Compound 17, [Gly2,Nle10,1-Nal16] hGLP-2 (1-30)-NH2] (H-HGDGSFSDE[Nle]NTILD[1Nal]LAARDFINWLIQTK-NH2) is 0.43 mL/kg/min; for `CCCC[C@H](NC(=O)[C@H](CCC(=O)O)NC(=O)[C@H](CC(=O)O)NC(=O)[C@H](CO)NC(=O)[C@H](Cc1ccccc1)NC(=O)[C@H](CO)NC(=O)CNC(=O)[C@H](CC(=O)O)NC(=O)CNC(=O)[C@@H](N)Cc1c[nH]cn1)C(=O)N[C@@H](CC(N)=O)C(=O)N[C@H](C(=O)N[C@H](C(=O)N[C@@H](CC(C)C)C(=O)N[C@@H](CC(=O)O)C(=O)N[C@@H](Cc1ccc(O)cc1)C(=O)N[C@@H](CC(C)C)C(=O)N[C@@H](C)C(=O)N[C@@H](C)C(=O)N[C@@H](CCCNC(=N)N)C(=O)N[C@@H](CC(=O)O)C(=O)N[C@@H](Cc1ccccc1)C(=O)N[C@H](C(=O)N[C@@H](CC(N)=O)C(=O)N[C@@H](Cc1c[nH]c2ccccc12)C(=O)N[C@@H](CC(C)C)C(=O)N[C@H](C(=O)N[C@@H](CCC(N)=O)C(=O)N[C@H](C(=O)N[C@@H](CCCCN)C(N)=O)[C@@H](C)O)[C@@H](C)CC)[C@@H](C)CC)[C@@H](C)CC)[C@@H](C)O` [Compound 18, [Gly2,Nle10,Tyr16] hGLP-2 (1-30)-NH2] (H-HGDGSFSDE[Nle]NTILDYLAARDFINWLIQTK-NH2) it is 1.2 mL/kg/min.

The same series, now with this note: rat, plasma, adult male Sprague-Dawley rats, i.v. bolus, dose 0.18 mg FB/kg, read-out: CL (ml/kg/min) Average.
`CCCC[C@H](NC(=O)[C@H](CCC(=O)O)NC(=O)[C@H](CC(=O)O)NC(=O)[C@H](CO)NC(=O)[C@H](Cc1ccccc1)NC(=O)[C@H](CO)NC(=O)CNC(=O)[C@H](CC(=O)O)NC(=O)CNC(=O)[C@@H](N)Cc1c[nH]cn1)C(=O)N[C@@H](CC(N)=O)C(=O)N[C@H](C(=O)N[C@H](C(=O)N[C@@H](CC(C)C)C(=O)N[C@@H](CC(=O)O)C(=O)N[C@@H](CC(N)=O)C(=O)N[C@@H](CC(C)C)C(=O)N[C@@H](C)C(=O)N[C@@H](C)C(=O)N[C@@H](CCCNC(=N)N)C(=O)N[C@@H](CC(=O)O)C(=O)N[C@@H](Cc1ccccc1)C(=O)N[C@H](C(=O)N[C@@H](CC(N)=O)C(=O)N[C@@H](Cc1c[nH]c2ccccc12)C(=O)N[C@@H](CC(C)C)C(=O)N[C@H](C(=O)N[C@@H](CCCNC(=N)N)C(=O)N[C@H](C(=O)N[C@@H](CCCCN)C(=O)NCCC(C)C)[C@@H](C)O)[C@@H](C)CC)[C@@H](C)CC)[C@@H](C)CC)[C@@H](C)O` [Compound 10, [Gly2,Nle10,Arg28] hGLP-2 (1-30)-NH-i-Am] (H-HGDGSFSDE[Nle]NTILDNLAARDFINWLIRTK-NHIsopentyl): the clearance was 1.5 mL/kg/min.
